From patent US6673578B1, “Method for synthesizing DNA” (Takara Shuzo Co., Ltd., priority 1998, dated 2004)

Columns and labels:
Assay type in all cases: biochemical
[1] = target: T1, TaKaRa Taq DNA polymerase (Thermus aquaticus, UniProt P19821); assay: Effects of acidic substances on TaKaRa Taq DNA polymerase, PCR of 8 kb fragment (Example 5(2)); design: key: ++: Intensive amplification being observed; +: Amplification being observed; ±: Slight amplification being observed; −: No amplification being observed; conditions: 10 U TaKaRa Taq, 100 pg λDNA, 25 μl, 30 cycles 98°C 5 s-68°C 3 min, added 0.25 ng polysaccharide-F, 0.25 ng dextran sulfate or 0.5 μg sodium alginate
T1 construct: purchased Takara Shuzo Co., Ltd
From the text: Using as acidic substances the sulfated-fucose-containing polysaccharide-F obtained by the process described in Item (1) of Example 5, dextran sulfate powder (manufactured by Onco), or sodium alginate (100 to 150 centipoises, manufactured by Wako Pure Chemicals), the effects of these acidic substances on the activity of TaKaRa Taq DNA polymerase (manufactured by Takara Shuzo Co., Ltd.) were examined.
A PCR reagent mixture comprising λDNA as a template, primers λ1 and λ7 as a primer pair and TaKaRa Taq DNA polymerase as a DNA polymerase was prepared, and PCR was carried out. The PCR reagent mixture was prepared so as to have the following composition.
Buffer for TaKaRa Taq DNA polymerase, 10 U of TaKaRa Taq DNA polymerase, 100 pg of λDNA, 0.2 mM each of DATP, dCTP, dGTP and dTTP, and 5 pmol each of primers λ1 and λ7 (final volume being 25 μl). Further, 0.25 ng of the sulfated-fucose-containing polysaccharide-F, 0.25 ng of dextran sulfate powder, or 0.5 μg of sodium alginate were added as acidic substances to the above PCR reagent mixture.
The reaction was carried out in 30 cycles for a total time period of PCR of about 110 minutes, wherein one cycle of reaction comprises a process consisting of 98° C., 5 seconds-68° C., 3 minutes. […]

[2] = test system: Polymerase A; assay: Rapid PCR by combination of Polymerase A with acidic substance, about 10 kb fragment (Example 6(1)); design: key: ++: Intensive amplification being observed; +: Amplification being observed; ±: Slight amplification being observed; −: No amplification being observed; conditions: 0.5 μl Polymerase A, 10 pg λDNA, 2.5 μg sodium alginate, 30 cycles 98°C 5 s-68°C 75 s
Experimental: (1) Rapid PCR by Combination of Polymerase A with Acidic Substance Using λDNA as template, a PCR reagent mixture comprising λDNA as a template, primers λ1 and λ8 as a primer pair was prepared, and PCR was carried out. The composition for a PCR reagent mixture is as follows.
50 mM Tris-acetate (pH 8.5), 0.2 mM each of dATP, dCTP, dGTP and dTTP, 3 mM magnesium acetate, 50 mM potassium acetate, 10 pg of λDNA, 0.5 μl of Polymerase A and 10 pmol each of primers λ1 and λ8 (final volume being 25 μl). Further, 2.5 μg of sodium alginate was added to the above PCR reagent mixture. As a control, a PCR reagent mixture without adding sodium alginate was also prepared.
Reaction Conditions: The reaction was carried out in 30 cycles, wherein one cycle of reaction comprises a process consisting of 98° C., 5 seconds-68° C., 75 seconds. The reaction was carried out in fast mode using TaKaRa PCR Thermal Cycler PERSONAL (manufactured by Takara Shuzo Co., Ltd.).
After the termination of reaction, 6 μl each of the resulting sample was electrophoresed on 1% agarose gel containing ethidium bromide in an amount of 0.00005%, thereby confirming an amplified fragment of about 10 kb.

[3] = test system: Polymerase B; assay: Combination of spergualins and acidic substances with Polymerase B, 10 kb fragment of λDNA (Example 8(1)); design: key: + to ++++: Extent of amplification is shown in 4 grades.; + to ++++: Extent of amplification is shown in 4 grades.; + to ++++: Extent of amplification is shown in 4 grades.; + to ++++: Extent of amplification is shown in 4 grades.; −: No amplification being observed; conditions: No 15-deoxyspergualin/2.5 μg sodium alginate, 0.5 μl Polymerase B, 10 pg λDNA, 30 cycles 98°C 5 s-68°C 90 s
Experimental: (1) A PCR reagent mixture comprising λDNA as a template and primers λ1 and λ8 as a primer pair was prepared, and rapid PCR was carried out. In this PCR, Polymerase B was used. As the spergualins, 15-deoxyspergualin trihydrochloride was used, and as the acidic substances, sodium alginate (manufactured by Wako Pure Chemicals) was used. The composition for a PCR reagent mixture is shown below.
50 mM Tris-acetate buffer (pH 8.5), 0.2 mM each of dATP, dCTP, dGTP and dTTP, 3 mM magnesium acetate, 50 mM potassium acetate, 10 pg of λDNA, 10 pmol each of primers λ1 and λ8. To the above PCR reagent mixture was added 0.5 μl of Polymerase B, and further 15-deoxyspergualin trihydrochloride and sodium alginate were added in combination at concentrations shown in Table 10, making up a final volume of 50 μl. In addition, as controls, there were respectively prepared a PCR reagent mixture in which 2.5 μg of sodium alginate was added without adding 15-deoxyspergualin trihydrochloride, and a PCR reagent mixture in which both 15-deoxyspergualin trihydrochloride and sodium alginate were not added.
Rapid PCR was carried out in 30 cycles for a total time period of PCR of about 65.5 minutes, wherein one cycle of reaction comprises a process consisting of 98° C., 5 seconds-68° C., 90 seconds. […]

[4] = test system: λDNA; assay: Effect of amount of DNA polymerase and acidic substance, PCR of 10 kb fragment (Example 7); conditions: sodium alginate 2.5 μg added to Polymerase B; image analyzer FM-BIO
Experimental: A PCR reagent mixture comprising λDNA as a template and primers λ1 and λ8 as a primer pair was prepared, and PCR was carried out. In this PCR, TaKaRa EX Taq DNA polymerase and Polymerase B were used. The composition for a PCR reagent mixture is shown below.
Buffer for TaKaRa EX Taq DNA polymerase, 0.2 mM each of dATP, dCTP, dGTP and dTTP, 10 pg of λDNA, 1.25 U of TaKaRa EX Taq DNA polymerase or 0.5 μl of Polymerase B and 10 pmol each of primers λ1 and λ8 (final volume being 50 μl).
Further, to the above PCR reagent mixture was added 2.5 μg of sodium alginate, to prepare a PCR reagent mixture.
The reaction was carried out in 30 cycles for a total period for PCR of about 80 minutes, wherein one cycle of reaction comprises a process consisting of 98° C., 5 seconds-68° C., 2 minutes. After the termination of reaction, 8 μl of the resulting sample was electrophoresed on 1% agarose gel containing ethidium bromide in an amount of 0.00005%, thereby confirming an amplified fragment.

[5] = test system: Polymerase B; assay: Rapid PCR by combination of Polymerase B with acidic substance, 12 kb fragment (Example 6(2)); design: key: + to +++: Extent of amplification is shown in 3 grades.; + to +++: Extent of amplification is shown in 3 grades.; + to +++: Extent of amplification is shown in 3 grades; conditions: 0.5 μl Polymerase B, 10 pg λDNA, 25 μl, 30 cycles 98°C 5 s-68°C 3 min, added 0.75 ng polysaccharide-F or 5 μg sodium alginate
Experimental: A PCR reagent mixture comprising λDNA as a template and primers λ1 and λ9 as a primer pair was prepared, and PCR was carried out. The composition for a PCR reagent mixture is as follows.
Buffer for TaKaRa EX Taq DNA polymerase, 0.2 mM each of dATP, dCTP, dGTP and dTTP, 10 pg of λDNA, 0.5 μl of Polymerase B and 5 pmol each of primers λ1 and λ9 (final volume being 25 μl). Further, 0.75 ng of sulfated-fucose-containing polysaccharide-F or 5 μg of sodium alginate was added, respectively, to the above PCR reagent mixture.
The reaction was carried out in 30 cycles, wherein one cycle of reaction comprises a process consisting of 98° C., 5 seconds-68° C., 3 minutes. After the termination of reaction, 5 μl of the resulting sample was electrophoresed on 1% agarose gel containing ethidium bromide in an amount of 0.00005%, thereby confirming an amplified fragment.

[6] = test system: Polymerase A; assay: Combination of spergualins and acidic substances with Polymerase A, 20 kb fragment of E. coli genomic DNA (Example 8(2)); design: key: ++: Intensive amplification being observed; +: Amplification being observed; ±: Slight amplification being observed; −: No amplification being observed; conditions: No 15-deoxyspergualin/2.5 μg sodium alginate, 0.5 μl Polymerase A, 5 ng E. coli genomic DNA, 30 cycles 98°C 5 s-68°C 3 min
Experimental: (2) The effects of the combination of spergualins and acidic substances on the DNA polymerase were studied in a case where template DNA was E. coli genomic DNA. The composition for a PCR reagent mixture is shown below.
The composition for the PCR reagent mixture was the same as that in Item (1) of Example 8, except for using 5 ng of E. coli genomic DNA (manufactured by Takara Shuzo Co., Ltd.) and 10 pmol each of primers of Eco-1 and Eco-6. To the above PCR reagent mixture was added 0.5 μl of Polymerase A, and further were added in combination 2.5 μg of sodium alginate and 15-deoxyspergualin trihydrochloride so as to have a final concentration of 1 μM, 5 μM or 10 μM, respectively, making up a final volume of 50 μl. In addition, as controls, there were respectively prepared a PCR reagent mixture in which 2.5 μg of sodium alginate was only added without adding 15-deoxyspergualin trihydrochloride, and a PCR reagent mixture in which both 15-deoxyspergualin trihydrochloride and sodium alginate were not added.
Rapid PCR was carried out in 30 cycles for a total time period of PCR of about 110 minutes, wherein one cycle of reaction comprises a process consisting of 98° C., 5 seconds-68° C., 3 minutes. […]

T1 sequence (P19821 whole entry, the tested form may be a part): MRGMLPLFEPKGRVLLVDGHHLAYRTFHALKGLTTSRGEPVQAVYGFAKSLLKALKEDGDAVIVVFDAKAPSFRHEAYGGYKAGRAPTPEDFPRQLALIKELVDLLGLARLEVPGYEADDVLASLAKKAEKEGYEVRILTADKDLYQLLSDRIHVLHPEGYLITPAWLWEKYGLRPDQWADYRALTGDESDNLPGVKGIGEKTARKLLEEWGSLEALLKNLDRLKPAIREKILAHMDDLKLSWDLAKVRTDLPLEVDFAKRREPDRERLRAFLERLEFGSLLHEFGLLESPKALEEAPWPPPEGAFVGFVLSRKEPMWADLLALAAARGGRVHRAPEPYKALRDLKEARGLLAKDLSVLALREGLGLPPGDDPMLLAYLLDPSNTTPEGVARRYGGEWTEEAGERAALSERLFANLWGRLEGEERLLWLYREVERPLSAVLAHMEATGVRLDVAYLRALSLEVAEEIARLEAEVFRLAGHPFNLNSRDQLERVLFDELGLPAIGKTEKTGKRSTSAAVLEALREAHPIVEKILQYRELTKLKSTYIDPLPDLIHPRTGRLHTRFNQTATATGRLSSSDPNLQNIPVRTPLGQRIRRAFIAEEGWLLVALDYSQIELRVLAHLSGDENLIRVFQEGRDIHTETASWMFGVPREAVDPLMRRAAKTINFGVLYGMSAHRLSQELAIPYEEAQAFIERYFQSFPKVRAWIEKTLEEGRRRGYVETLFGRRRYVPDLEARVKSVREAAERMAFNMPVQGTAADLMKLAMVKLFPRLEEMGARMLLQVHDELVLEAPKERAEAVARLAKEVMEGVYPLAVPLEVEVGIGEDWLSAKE

Row | Substance | Amplification Results [1] | Amplification Results [2] | Amplification Results [3] | Amount of the amplified product compared to the case where no sodium alginate was added [4] | Amplification Results [5] | Amplification Results [6]
1 | dextran sulfate [Dextran Sulfate Powder] | ++ |  |  |  |  | 
2 | sodium alginate | ++ | ++ | + | about five times | +++ | ±
